From ChEMBL document CHEMBL1201862, “PubChem BioAssay data set” (2004)
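Values below derive from 48-hour exposures of cells grown in 96-well plates, with endpoints linearly interpolated between the two concentrations bracketing the appropriate inhibition level. Abbreviation: GI50, concentration required for 50% inhibition of growth.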 Activity calls are given as the source filed them. Rule as the data show it: active = GI50 up to about 1.1 µM and inactive = higher.

How the values were obtained:
Test in all cases: NCI-60 cell line screen, 48 h
SN12C = test system: SN12C
UO-31 = test system: UO-31
A498 = test system: A498
M14 = test system: M14
RPMI-8226 = test system: RPMI-8226
HCT-116 = test system: HCT-116
COLO 205 = test system: COLO 205
UACC-62 = test system: UACC-62
UACC-257 = test system: UACC-257
OVCAR-3 = test system: OVCAR-3
SW-620 = test system: SW-620
SNB-19 = test system: SNB-19
OVCAR-8 = test system: OVCAR-8
HOP-92 = test system: HOP-92
U-251 = test system: U-251
EKVX = test system: EKVX
RXF 393 = test system: RXF 393
SK-MEL-2 = test system: SK-MEL-2
SK-MEL-28 = test system: SK-MEL-28
SF-295 = test system: SF-295

Measured: GI50

O=C(Nc1cccc(C(F)(F)F)c1)C(=O)C(C(=O)c1ccc(Cl)c(Cl)c1)C1OC(=O)c2ccccc21 (configuration not stated)
inactive: SN12C 36.6 µM | UO-31 55.1 µM | A498 21.4 µM | M14 81.1 µM | RPMI-8226 56 µM | HCT-116 17.5 µM | COLO 205 41.2 µM | UACC-62 28.6 µM | UACC-257 51.8 µM | OVCAR-3 32.1 µM | SW-620 38.1 µM | SNB-19 37.8 µM | OVCAR-8 26.5 µM | HOP-92 26.8 µM | U-251 23.1 µM | EKVX 79.1 µM | RXF 393 14.7 µM

CCOC(=O)/C(=N/Nc1ccc(Cl)cc1)N1C(=S)N(C)N=C(C)C=C1S
inactive: SN12C 29.6 µM | UO-31 > 100 µM | SK-MEL-2 57.7 µM | M14 > 100 µM | RPMI-8226 > 100 µM | HCT-116 > 100 µM | COLO 205 > 100 µM | UACC-62 34.6 µM | UACC-257 > 100 µM | OVCAR-3 81.3 µM | SK-MEL-28 > 100 µM | SW-620 > 100 µM | SNB-19 34.6 µM | OVCAR-8 23.7 µM | HOP-92 50.7 µM | SF-295 20.5 µM | U-251 15.9 µM | EKVX 24.3 µM | RXF 393 11.7 µM

COc1cc(N/N=C/C#N)cc(OC)c1OC
inactive: SN12C > 10 µM | UO-31 > 10 µM | SK-MEL-2 > 10 µM | A498 > 10 µM | M14 > 10 µM | RPMI-8226 2.16 µM | HCT-116 > 10 µM | COLO 205 4.86 µM | UACC-62 > 10 µM | OVCAR-3 > 10 µM | SK-MEL-28 > 10 µM | SW-620 8.28 µM | SNB-19 > 10 µM | OVCAR-8 > 10 µM | SF-295 > 10 µM | U-251 > 10 µM | EKVX > 10 µM | RXF 393 > 10 µM

CC1(C)CCC2(C(=O)O)C(O)CC3(C)C(=CCC4C5(C)CCC(OC6OCC(O)C(O)C6OC6OCC(O)C(O)C6OC6OCC(O)C(OC7OC(CO)C(O)C(O)C7O)C6O)C(C)(C)C5CCC43C)C2C1 (configuration not stated)
inactive: SN12C 23.3 µM | UO-31 17.3 µM | SK-MEL-2 24.5 µM | A498 26.9 µM | M14 40.1 µM | HCT-116 > 100 µM | COLO 205 > 100 µM | UACC-62 31.7 µM | UACC-257 76.4 µM | OVCAR-3 > 100 µM | SK-MEL-28 36.5 µM | SW-620 39 µM | SNB-19 20 µM | OVCAR-8 > 100 µM | HOP-92 29.4 µM | SF-295 20.3 µM | U-251 33.7 µM | EKVX 37.9 µM | RXF 393 20 µM

COc1ccc2c(c1)/C(=C/CCN(C)C)c1ccccc1S2
inactive: SN12C > 100 µM | UO-31 27 µM | A498 > 100 µM | M14 73.8 µM | HCT-116 55.8 µM | COLO 205 18.8 µM | UACC-257 > 100 µM | OVCAR-3 > 100 µM | SK-MEL-28 19.4 µM | SW-620 > 100 µM | SNB-19 > 100 µM | OVCAR-8 > 100 µM | HOP-92 > 100 µM | SF-295 > 100 µM | U-251 > 100 µM | RXF 393 35.6 µM

Cc1ccc(S(=O)(=O)N/N=C/c2c(O)ccc3ccccc23)cc1
inactive: SN12C 31.1 µM | UO-31 53.7 µM | SK-MEL-2 20.8 µM | A498 16.7 µM | M14 22.1 µM | RPMI-8226 26.7 µM | HCT-116 15.3 µM | COLO 205 19.5 µM | UACC-62 18.2 µM | UACC-257 37.3 µM | OVCAR-3 19.9 µM | SK-MEL-28 35.5 µM | SW-620 30.3 µM | SNB-19 41.1 µM | OVCAR-8 30.4 µM | SF-295 16.2 µM | U-251 27.6 µM | EKVX 32.1 µM | RXF 393 19.4 µM

COc1cc(Nc2nc3ccc(C(F)(F)F)cc3nc2C(=O)O)cc(OC)c1OC
inactive: SN12C 14.4 µM | UO-31 19.7 µM | SK-MEL-2 21.8 µM | M14 30 µM | RPMI-8226 21.5 µM | HCT-116 18.5 µM | COLO 205 19.8 µM | UACC-62 18.6 µM | UACC-257 20 µM | OVCAR-3 32.1 µM | SK-MEL-28 26.8 µM | SW-620 25.7 µM | SNB-19 29.9 µM | OVCAR-8 27.7 µM | SF-295 27.1 µM | U-251 19 µM | EKVX 34.9 µM | RXF 393 25.2 µM

CCCCCCCNC(P(=O)(O)O)P(=O)(O)O
inactive: SN12C > 100 µM | UO-31 > 100 µM | SK-MEL-2 > 100 µM | A498 > 100 µM | M14 > 100 µM | RPMI-8226 62.8 µM | HCT-116 > 100 µM | COLO 205 > 100 µM | UACC-62 > 100 µM | UACC-257 > 100 µM | OVCAR-3 > 100 µM | SK-MEL-28 > 100 µM | SW-620 > 100 µM | SNB-19 > 100 µM | OVCAR-8 > 100 µM | HOP-92 > 100 µM | SF-295 > 100 µM | U-251 > 100 µM | EKVX > 100 µM

CCCCCC1CC(C(C)=O)CN1c1ccc(F)cc1 (configuration not stated)
inactive: SN12C 48.5 µM | UO-31 37.4 µM | SK-MEL-2 38.9 µM | A498 77.6 µM | M14 35 µM | HCT-116 27.1 µM | COLO 205 48.1 µM | UACC-257 30.5 µM | OVCAR-3 28.1 µM | SK-MEL-28 54.5 µM | SW-620 29.7 µM | SNB-19 > 10 µM | OVCAR-8 32.3 µM | HOP-92 27.9 µM | SF-295 21.2 µM | U-251 41.5 µM | EKVX 50.6 µM | RXF 393 41 µM

CC1CNC(NS(=O)(=O)c2cc(C(=O)Nc3ccc(F)cc3)c(Cl)cc2S)=NN1 (configuration not stated)
inactive: SN12C > 100 µM | UO-31 > 100 µM | SK-MEL-2 28.3 µM | A498 17.2 µM | M14 42.3 µM | RPMI-8226 34.9 µM | HCT-116 37.7 µM | COLO 205 62.4 µM | UACC-62 57.3 µM | UACC-257 > 100 µM | OVCAR-3 92.9 µM | SK-MEL-28 56.2 µM | SW-620 45.3 µM | SNB-19 87.1 µM | OVCAR-8 73.8 µM | SF-295 66.5 µM | U-251 48.4 µM | EKVX > 100 µM

CS(=O)(=O)OCC1=C(COS(C)(=O)=O)C(=O)c2c(O)ccc(O)c2C1=O
inactive: SN12C > 100 µM | UO-31 > 100 µM | SK-MEL-2 > 100 µM | A498 > 100 µM | M14 > 100 µM | RPMI-8226 > 100 µM | HCT-116 > 100 µM | COLO 205 > 100 µM | UACC-62 > 100 µM | UACC-257 > 100 µM | OVCAR-3 > 100 µM | SK-MEL-28 > 100 µM | SW-620 > 100 µM | OVCAR-8 > 100 µM | HOP-92 > 100 µM | SF-295 > 100 µM | U-251 > 100 µM | EKVX > 100 µM

CC1(C)CCc2cc3c(cc2O1)OC(C)(C)CC3=O
inactive: SN12C 65.5 µM | UO-31 40.3 µM | SK-MEL-2 > 100 µM | M14 > 100 µM | RPMI-8226 > 100 µM | HCT-116 71.1 µM | COLO 205 > 100 µM | UACC-62 > 100 µM | OVCAR-3 27.5 µM | SW-620 > 100 µM | OVCAR-8 > 100 µM | HOP-92 17.5 µM | SF-295 > 100 µM | U-251 90.8 µM | EKVX 93.5 µM

CN(C)CCCCN1CCc2c(n(C)c3ccccc23)C1=O
inactive: SN12C 42 µM | UO-31 30.9 µM | SK-MEL-2 20 µM | M14 18.4 µM | HCT-116 22.4 µM | COLO 205 18.1 µM | UACC-62 17.3 µM | UACC-257 16.5 µM | OVCAR-3 > 81.3 µM | SK-MEL-28 16.7 µM | SW-620 27.4 µM | SNB-19 > 74 µM | OVCAR-8 > 80.4 µM | HOP-92 42.6 µM | SF-295 25.9 µM | EKVX 36 µM | RXF 393 42.1 µM

COC1=CC(=O)c2ccccc2C1(C)C1=NC(C)(C)CO1 (configuration not stated)
inactive: SN12C > 100 µM | UO-31 > 100 µM | SK-MEL-2 > 100 µM | M14 > 100 µM | RPMI-8226 > 100 µM | HCT-116 > 100 µM | COLO 205 > 100 µM | UACC-62 > 100 µM | UACC-257 > 100 µM | OVCAR-3 > 100 µM | SK-MEL-28 > 100 µM | SW-620 > 100 µM | SNB-19 > 100 µM | OVCAR-8 > 100 µM | HOP-92 > 100 µM | SF-295 > 100 µM | U-251 > 100 µM | EKVX > 100 µM | RXF 393 > 100 µM

Cc1ccc(-c2c(C#N)c(-c3ccc([N+](=O)[O-])cc3)c(C#N)c(=O)n2NS(=O)(=O)c2ccccc2)cc1
inactive: SN12C 96.2 µM | SK-MEL-2 44 µM | A498 57.7 µM | M14 32.5 µM | HCT-116 31.7 µM | COLO 205 53.1 µM | UACC-62 20.9 µM | UACC-257 88.3 µM | SK-MEL-28 36.3 µM | SW-620 38 µM | SNB-19 42.6 µM | OVCAR-8 31.6 µM | HOP-92 13.3 µM | SF-295 27.8 µM | U-251 40.3 µM | EKVX 40.5 µM | RXF 393 29.4 µM
